Results from ChEMBL document CHEMBL6153102, “Rational Design, Synthesis, and Biological Evaluation of Novel c-Met Degraders for Lung Cancer Therapy” (J Med Chem, 2025).
Activity calls are given as the source filed them. The calls are words filed in the database; no cut-off is given here.

What was measured:
[1] = target: T1, Protein cereblon/Hepatocyte growth factor receptor (Homo sapiens, UniProt P08581+Q96SW2); experiment: PROTAC activity at c-Met/CRBN in human HCT-116 cells assessed as induction of c-Met degradation at 15.6 nM by Western blotting analysis; format: cell-based; details: time 72.0 hrs
Target sequence in this assay (P08581 25-1390 limits assumed): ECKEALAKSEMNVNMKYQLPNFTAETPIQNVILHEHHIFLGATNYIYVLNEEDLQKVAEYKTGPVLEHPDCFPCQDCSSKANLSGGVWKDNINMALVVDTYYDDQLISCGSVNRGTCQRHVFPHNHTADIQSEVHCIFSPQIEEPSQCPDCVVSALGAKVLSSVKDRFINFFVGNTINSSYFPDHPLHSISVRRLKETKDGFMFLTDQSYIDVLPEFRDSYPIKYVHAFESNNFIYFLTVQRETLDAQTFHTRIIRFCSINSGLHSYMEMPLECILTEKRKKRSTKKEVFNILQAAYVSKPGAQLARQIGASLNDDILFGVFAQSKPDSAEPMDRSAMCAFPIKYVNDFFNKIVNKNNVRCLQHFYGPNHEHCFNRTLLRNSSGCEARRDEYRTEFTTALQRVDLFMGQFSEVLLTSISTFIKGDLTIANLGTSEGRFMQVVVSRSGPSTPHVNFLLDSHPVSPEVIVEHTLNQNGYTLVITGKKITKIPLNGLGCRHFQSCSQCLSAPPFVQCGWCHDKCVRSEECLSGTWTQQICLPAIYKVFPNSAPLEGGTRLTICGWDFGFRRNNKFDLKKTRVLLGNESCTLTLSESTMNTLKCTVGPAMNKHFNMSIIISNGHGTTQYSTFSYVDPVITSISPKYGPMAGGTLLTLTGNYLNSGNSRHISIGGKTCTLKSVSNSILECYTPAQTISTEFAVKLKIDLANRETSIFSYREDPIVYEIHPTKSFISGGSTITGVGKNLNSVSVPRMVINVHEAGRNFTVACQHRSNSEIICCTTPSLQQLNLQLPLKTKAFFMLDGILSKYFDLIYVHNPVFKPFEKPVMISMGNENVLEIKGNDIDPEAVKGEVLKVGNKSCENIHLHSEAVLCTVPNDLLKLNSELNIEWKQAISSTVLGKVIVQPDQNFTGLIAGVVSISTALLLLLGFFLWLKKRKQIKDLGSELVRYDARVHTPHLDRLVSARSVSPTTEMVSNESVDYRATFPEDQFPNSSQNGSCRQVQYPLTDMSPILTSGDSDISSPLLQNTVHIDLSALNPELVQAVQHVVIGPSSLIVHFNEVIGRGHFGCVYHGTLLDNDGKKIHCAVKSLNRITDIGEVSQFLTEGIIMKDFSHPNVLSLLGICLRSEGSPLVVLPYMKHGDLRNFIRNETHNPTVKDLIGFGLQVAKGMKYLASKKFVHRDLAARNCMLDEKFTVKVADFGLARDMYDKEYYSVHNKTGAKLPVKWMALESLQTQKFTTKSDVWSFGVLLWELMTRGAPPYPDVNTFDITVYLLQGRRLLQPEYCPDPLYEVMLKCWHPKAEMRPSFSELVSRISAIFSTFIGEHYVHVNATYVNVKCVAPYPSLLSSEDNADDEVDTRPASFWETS
Target sequence in this assay (Q96SW2 whole entry partner): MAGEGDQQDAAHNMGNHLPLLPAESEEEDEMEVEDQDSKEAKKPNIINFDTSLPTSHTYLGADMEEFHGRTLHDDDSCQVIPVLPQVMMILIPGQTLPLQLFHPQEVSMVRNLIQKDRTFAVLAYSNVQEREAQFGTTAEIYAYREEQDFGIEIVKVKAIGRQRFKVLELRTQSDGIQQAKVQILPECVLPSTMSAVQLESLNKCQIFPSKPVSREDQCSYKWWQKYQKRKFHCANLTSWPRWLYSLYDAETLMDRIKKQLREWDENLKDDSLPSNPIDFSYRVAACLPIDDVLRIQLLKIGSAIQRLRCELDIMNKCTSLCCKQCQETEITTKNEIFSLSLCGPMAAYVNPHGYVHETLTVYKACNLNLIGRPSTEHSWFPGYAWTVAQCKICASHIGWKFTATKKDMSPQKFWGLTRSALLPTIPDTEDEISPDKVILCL

[2] = MRT (0 to t) in Sprague-Dawley rat at 5 mg/kg, ip measured upto 24 hrs by LC-MS/MS analysis; format: ADME, organism-based; details: in vivo
EBC-1 [3] = experiment: Antitumor activity against human EBC-1 cells xenografted BALB/c nude mouse assessed as reduction in Ki67 expression at 10 to 20 mg/kg, ip administered for 7 days by immunohistochemical analysis; format: functional, organism-based; details: dose 10-20 mg/kg, time 7.0 day
[4] = target: T1, Protein cereblon/Hepatocyte growth factor receptor; experiment: PROTAC activity at c-Met/CRBN in human EBC-1 cells assessed as effect on IKZF2 level at 15.6 nM incubated for 24 hrs by proteomics analysis; format: cell-based
Target sequence in this assay (P08581 25-1390 limits assumed): as the sequence (P08581 25-1390 limits assumed) above
Target sequence in this assay (Q96SW2 whole entry partner): as the sequence (Q96SW2 whole entry partner) above

EBC-1 [5] = experiment: Induction of apoptosis in human EBC-1 cells assessed as upregulation of PARP level incubated for 24 hrs by Western blot analysis; format: functional, cell-based; details: dose 5-50 nM
[6] = target: T1, Protein cereblon/Hepatocyte growth factor receptor; experiment: PROTAC activity at c-Met/CRBN in human EBC-1 cells assessed as induction of c-Met degradation at 15.6 nM by Western blotting analysis; format: cell-based; details: time 72.0 hrs
Target sequence in this assay (P08581 25-1390 limits assumed): as the sequence (P08581 25-1390 limits assumed) above
Target sequence in this assay (Q96SW2 whole entry partner): as the sequence (Q96SW2 whole entry partner) above

[7] = target: T1, Protein cereblon/Hepatocyte growth factor receptor; experiment: PROTAC activity at c-Met/CRBN in human EBC-1 cells assessed as reduction in UHRF1 level at 15.6 nM incubated for 24 hrs by proteomics analysis; format: cell-based
Target sequence in this assay (P08581 25-1390 limits assumed): as the sequence (P08581 25-1390 limits assumed) above
Target sequence in this assay (Q96SW2 whole entry partner): as the sequence (Q96SW2 whole entry partner) above

[8] = Cmax in Sprague-Dawley rat at 2 mg/kg, iv measured upto 24 hrs by LC-MS/MS analysis; format: ADME, organism-based; details: in vivo
[9] = Stability in human whole blood assessed as half life; format: ADME, tissue-based
[10] = AUC (0 to t) in Sprague-Dawley rat at 5 mg/kg, ip measured upto 24 hrs by LC-MS/MS analysis; format: ADME, organism-based; details: in vivo
[11] = target: T1, Protein cereblon/Hepatocyte growth factor receptor; experiment: PROTAC activity at c-Met/CRBN in human A549 cells assessed as reduction in c-Met level at 3.9 to 125 nM incubated for 24 hrs in presence of tepotinib by Western blot analysis; format: cell-based; details: dose 3.9-125 nM
Target sequence in this assay (P08581 25-1390 limits assumed): as the sequence (P08581 25-1390 limits assumed) above
Target sequence in this assay (Q96SW2 whole entry partner): as the sequence (Q96SW2 whole entry partner) above

[12] = target: T1, Protein cereblon/Hepatocyte growth factor receptor; experiment: PROTAC activity at c-Met/CRBN in human EBC-1 cells assessed as reduction in HELLS level at 15.6 nM incubated for 24 hrs by proteomics analysis; format: cell-based
Target sequence in this assay (P08581 25-1390 limits assumed): as the sequence (P08581 25-1390 limits assumed) above
Target sequence in this assay (Q96SW2 whole entry partner): as the sequence (Q96SW2 whole entry partner) above

[13] = Half life in Sprague-Dawley rat at 5 mg/kg, ip measured upto 24 hrs by LC-MS/MS analysis; format: ADME, organism-based; details: in vivo
[14] = Tmax in Sprague-Dawley rat at 5 mg/kg, ip measured upto 24 hrs by LC-MS/MS analysis; format: ADME, organism-based; details: in vivo
[15] = target: T1, Protein cereblon/Hepatocyte growth factor receptor; experiment: PROTAC activity at c-Met/CRBN in human EBC-1 cells assessed as reduction in c-Met level at 3.9 to 125 nM incubated for 24 hrs in presence of tepotinib by Western blot analysis; format: cell-based; details: dose 3.9-125 nM
[16] = target: T1, Protein cereblon/Hepatocyte growth factor receptor; experiment: PROTAC activity at c-Met/CRBN in human HCT-116 cells assessed as reduction in c-Met level at 3.9 to 125 nM incubated for 24 hrs in presence of tepotinib by Western blot analysis; format: cell-based; details: dose 3.9-125 nM
[17] = target: T1, Protein cereblon/Hepatocyte growth factor receptor; experiment: PROTAC activity at c-Met/CRBN in human EBC-1 cells assessed as reduction in c-Met level at 15.6 nM incubated for 24 hrs by proteomics analysis; format: cell-based
A549 = experiment: Antiproliferative activity against human A549 cells assessed as cell viability incubated for 72 hrs by MTT assay; format: functional, cell-based; details: A549, 72 h
[18] = target: T1, Protein cereblon/Hepatocyte growth factor receptor; experiment: PROTAC activity at c-Met/CRBN in human EBC-1 cells assessed as induction of c-Met degradation at 15.6 nM incubated for 72 hrs by Western blotting analysis relative to control; format: cell-based
[19] = target: T1, Protein cereblon/Hepatocyte growth factor receptor; experiment: PROTAC activity at c-Met/CRBN in human A549 cells assessed as reduction in c-Met level incubated for 24 hrs by Western blotting analysis; format: cell-based
Target sequence in this assay (P08581 whole entry): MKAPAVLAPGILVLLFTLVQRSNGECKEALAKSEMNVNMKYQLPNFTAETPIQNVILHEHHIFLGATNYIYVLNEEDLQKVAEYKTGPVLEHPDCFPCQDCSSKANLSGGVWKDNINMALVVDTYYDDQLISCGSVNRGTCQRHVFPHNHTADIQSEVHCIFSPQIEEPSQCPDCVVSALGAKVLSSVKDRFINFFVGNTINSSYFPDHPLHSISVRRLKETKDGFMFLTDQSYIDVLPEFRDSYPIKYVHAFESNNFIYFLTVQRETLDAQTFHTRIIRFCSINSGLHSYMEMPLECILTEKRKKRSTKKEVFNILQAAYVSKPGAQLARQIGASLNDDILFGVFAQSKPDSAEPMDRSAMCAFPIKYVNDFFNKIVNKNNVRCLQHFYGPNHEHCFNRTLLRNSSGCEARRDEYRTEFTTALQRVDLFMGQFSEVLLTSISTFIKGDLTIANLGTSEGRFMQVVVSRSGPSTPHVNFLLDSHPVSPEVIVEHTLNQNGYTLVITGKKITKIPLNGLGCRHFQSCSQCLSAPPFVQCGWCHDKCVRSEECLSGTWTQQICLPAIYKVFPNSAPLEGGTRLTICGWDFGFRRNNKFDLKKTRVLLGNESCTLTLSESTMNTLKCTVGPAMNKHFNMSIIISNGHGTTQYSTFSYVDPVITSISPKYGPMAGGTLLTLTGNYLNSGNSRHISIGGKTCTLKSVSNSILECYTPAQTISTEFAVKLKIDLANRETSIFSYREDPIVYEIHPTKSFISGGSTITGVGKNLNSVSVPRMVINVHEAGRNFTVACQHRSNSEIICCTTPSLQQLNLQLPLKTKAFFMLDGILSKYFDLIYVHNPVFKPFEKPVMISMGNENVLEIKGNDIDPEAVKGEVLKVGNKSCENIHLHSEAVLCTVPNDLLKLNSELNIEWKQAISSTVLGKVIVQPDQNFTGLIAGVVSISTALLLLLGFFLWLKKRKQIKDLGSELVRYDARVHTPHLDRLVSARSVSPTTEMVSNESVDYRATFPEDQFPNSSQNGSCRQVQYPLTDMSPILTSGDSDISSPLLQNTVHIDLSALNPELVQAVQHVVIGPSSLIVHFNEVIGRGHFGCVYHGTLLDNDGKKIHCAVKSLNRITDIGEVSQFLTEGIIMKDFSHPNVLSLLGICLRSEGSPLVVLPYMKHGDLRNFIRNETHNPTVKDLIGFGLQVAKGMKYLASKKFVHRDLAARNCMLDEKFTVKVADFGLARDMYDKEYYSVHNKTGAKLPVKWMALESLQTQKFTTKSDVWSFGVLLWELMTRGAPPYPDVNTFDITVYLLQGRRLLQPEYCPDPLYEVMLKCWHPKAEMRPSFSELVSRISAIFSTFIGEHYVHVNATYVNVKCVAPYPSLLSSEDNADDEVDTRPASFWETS
Target sequence in this assay (Q96SW2 whole entry): as the sequence (Q96SW2 whole entry partner) above

EBC-1 [20] = experiment: Induction of apoptosis in human EBC-1 cells assessed as early apoptotic cells at 50 nM incubated for 24 hrs by Annexin V/FITC staining based flow cytometry analysis (reference value: 2.11 %); format: functional
[21] = AUC (0 to t) in Sprague-Dawley rat at 2 mg/kg, iv measured upto 24 hrs by LC-MS/MS analysis; format: ADME, organism-based; details: in vivo
[22] = Stability in human plasma assessed as half life; format: ADME, cell-free
EBC-1 [23] = experiment: Induction of apoptosis in human EBC-1 cells assessed as late apoptotic cells at 5 nM incubated for 24 hrs by Annexin V/FITC staining based flow cytometry analysis (reference value: 1.65 %); format: functional
[24] = target: T1, Protein cereblon/Hepatocyte growth factor receptor; experiment: PROTAC activity at c-Met/CRBN in human EBC-1 cells assessed as reduction in c-Met level at 3.9 to 125 nM incubated for 24 hrs in presence of MG132 by Western blot analysis; format: cell-based; details: dose 3.9-125 nM
[25] = MRT (0 to infinity) in Sprague-Dawley rat at 5 mg/kg, ip measured upto 24 hrs by LC-MS/MS analysis; format: ADME, organism-based; details: in vivo
EBC-1 [26] = experiment: Inhibition of colony formation in human EBC-1 cells at 3.9 to 15.6 nM incubated for 7 days by crystal violet staining based analysis; format: functional, cell-based; details: dose 3.9-15.6 nM, time 7.0 day
EBC-1 [27] = experiment: Induction of apoptosis in human EBC-1 cells assessed as viable cells at 5 nM incubated for 24 hrs by Annexin V/FITC staining based flow cytometry analysis (reference value: 95.9%); format: functional; details: read-out: Activity
EBC-1 [28] = experiment: Antitumor activity against human EBC-1 cells xenografted in ip dosed BALB/c nude mouse assessed as reduction in tumor growth administered for 7 days; format: functional, organism-based; details: dose 10-20 mg/kg, time 7.0 day
EBC-1 [29] = experiment: Induction of apoptosis in human EBC-1 cells assessed as necrotic cells at 15 nM incubated for 24 hrs by Annexin V/FITC staining based flow cytometry analysis (reference value: 0.35 %); format: functional
EBC-1 [30] = experiment: Induction of apoptosis in human EBC-1 cells assessed as late apoptotic cells at 15 nM incubated for 24 hrs by Annexin V/FITC staining based flow cytometry analysis (reference value: 1.65 %); format: functional
[31] = MRT (0 to infinity) in Sprague-Dawley rat at 2 mg/kg, iv measured upto 24 hrs by LC-MS/MS analysis; format: ADME, organism-based; details: in vivo
HCT-116 = experiment: Antiproliferative activity against human HCT-116 cells assessed as cell viability incubated for 72 hrs by MTT assay; format: functional, cell-based; details: HCT-116, 72 h
EBC-1 [32] = experiment: Induction of apoptosis in human EBC-1 cells assessed as late apoptotic cells at 50 nM incubated for 24 hrs by Annexin V/FITC staining based flow cytometry analysis (reference value: 1.65 %); format: functional
EBC-1 [33] = experiment: Induction of apoptosis in human EBC-1 cells assessed as necrotic cells at 5 nM incubated for 24 hrs by Annexin V/FITC staining based flow cytometry analysis (reference value: 0.35 %); format: functional
EBC-1 [34] = experiment: PROTAC activity at c-Met […] mutant /CRBN in human EBC-1 cells assessed as induction of c-Met degradation incubated for 24 hrs by Western blotting analysis; format: cell-based; details: dose <= 1000.0 nM
EBC-1 [35] = experiment: Induction of apoptosis in human EBC-1 cells assessed as necrotic cells at 50 nM incubated for 24 hrs by Annexin V/FITC staining based flow cytometry analysis (reference value: 0.35 %); format: functional

## COc1ccc(C(=O)N2CCC3(CCN(C(=O)CN4CCC(COc5cnc(-c6cccc(Cn7nc(-c8cccc(C#N)c8)ccc7=O)c6)nc5)CC4)CC3)CC2)cc1N1CCC(=O)NC1=O
[1]
  Activity: Time-dependent-effect
[2]
  MRT last at 24 h: 5.06 h
EBC-1 [3]
  Activity: inactive
[4]
  Activity: No effect
EBC-1 [5]
  Activity: Dose-dependent-effect
[6]
  Activity: Time-dependent-effect
[7]
  Activity: Active
[8]
  Cmax: 2380 ng/mL
[9]
  half-life: > 2 h
[10]
  AUCt: 655 ng·h/mL
[11]
  Activity: inactive
[12]
  Activity: Active
[13]
  half-life: 5.49 h
[14]
  Tmax: 2 h
[15]
  Activity: inactive
[16]
  Activity: inactive
[17]
  Activity: Active
A549
  IC50: 16 µM
[18]
  Activity: 93.1%
[19]
  DC50: 0.0418 µM
EBC-1 [20]
  Activity: 33.9%
[21]
  AUCt: 532 ng·h/mL
[22]
  half-life: > 2 h
EBC-1 [23]
  Activity: 3.43%
[24]
  Activity: Active
[25]
  MRT inf: 6 h
EBC-1 [26]
  inhibition: Active
EBC-1 [27]
  viability at 0.005 µM: 66.4%
EBC-1 [28]
  Activity: Dose-dependent-effect
EBC-1 [29]
  Activity: 0.58%
EBC-1 [30]
  Activity: 3.66%
[31]
  MRT: 3.58 h
HCT-116
  IC50: 6.19 µM
EBC-1 [32]
  Activity: 3.47%
EBC-1 [33]
  Activity: 0.42%
EBC-1 [34]
  Activity: Dose-dependent-effect
EBC-1 [35]
  Activity: 0.6%
